What all share (format): cell-based
The test system of data set [1] is L. infantum promastigotes. The experiment in a line: Anti-Leishmania activity assay on promastigotes (MTT viability). Particulars: pure compounds. On the procedure:
Anti-Leishmania (AL) activity was assessed on L. infantum promastigotes (MCAN/ES/98/LLM-722), kindly provided by Dr. J.M. Requena from CBM-CSIC, as well as on L. infantum (M/CAN/ES/96/BCN150 zymodeme MON-1), strain isolated from a dog with active visceral leishmaniasis. L. infantum promastigotes (MCAN/ES/98/LLM-722) were cultured in RPMI medium supplemented with 15% FBS and 10 μg/mL of hemin (Acros Organics, Madrid, Spain), grown at 26 °C. Promastigotes in logarithmic growth were seeded in 96-well flat-bottom plates at a volume of 100 μL of culture per well and incubated for 48 h. Promastigotes for macrophage infection (M/CAN/ES/96/BCN150 zymodeme MON-1) were maintained at 26 °C in Schneider’s insect medium (Lonza, Basel, Switzerland) supplemented with 10% FBS and 100 U/mL penicillin and 100 μg/mL streptomycin (Lonza, Basel, Switzerland) (Pen-Strep). Promastigotes in the stationary phase of growth (5–6 days) were washed twice in phosphate-buffered saline at 2700× g for 10 min at 22 °C and employed for macrophage infection.
EOs and pure compounds were solved in DMSO (Sigma, Madrid, Spain) (<1% final concentration). […] Trophozoites/promastigotes viability was assessed using the modified MTT colorimetric assay, as described previously in the literature, with results further validated by microscopic examination. The plate was analyzed in a spectrophotometer at a wavelength of 570 nm. The percentage of antiparasitic activity was calculated as growth inhibition, using the following formula: % AT = 100 − [(Ap − Ab) ÷ (Ac − Ab)] × 100, where Ap is the absorbance of the tested product, Ab the absorbance of the blank and Ac the absorbance of the control wells (culture without treatment).
Pure compounds were tested using the same method, although at concentrations of 100, 75, 50, 25, 10, and 1 μg/mL. Metronidazole (Acros Organics, Madrid, Spain) served as a reference compound for anti-Giardia activity and Anti-Trichomonas activity and amphotericin B for anti-Leishmania activity.
(§1) Data was analyzed using STATGRAPHICS Centurion XIX (https://www.statgraphics.com) (Statgraphics Technologies, Inc., The Plains, VA, USA). The mammalian cells and trophozoites viability were tested with each compound in a dose–response experiment to calculate their relative potency (CC50 or IC50 value, respectively). IC50 (μg/mL) expresses the dose of EOs, extracts or pure compounds needed to produce 50% mortality of trophozoites, while CC50 (μg/mL) expresses the dose of compounds necessary to produce 50% mortality of Vero cells.

Data set [2] can be described thus: Cytotoxicity of pure compounds on Vero cells (MTT). Particulars: African green monkey. How it is done:
African green monkey kidney cells (Vero cells) were maintained in Dulbecco’s modified Eagle’s minimal essential medium (DMEM) (Thermo Fisher Scientific, Waltham, MA, USA) supplemented with 10% FBS and 1% Pen-Strep at 37 °C under a humidified atmosphere of 5% CO2/95% air.
Cells seeded in 96-well flat-bottom microplates with 100 μL medium per well (initial densities 10^4 cells per well) were exposed for 48 h to serial dilutions (100, 75, 50, 25, 10 and 1 µg/mL) of the tested compounds in DMSO (<1% final concentration). Cell viability was analyzed by the MTT colorimetric assay method, and the purple-colored formazan precipitate was dissolved with 100 μL of DMSO [23].
as §1

Data set [3] has as its system G. duodenalis trophozoites. The data set is described as follows: Anti-Giardia activity assay (MTT viability). Particulars: pure compounds. How it is done: Anti-Giardia (AG) activity assays were conducted on G. duodenalis trophozoites from the ATCC® 30957 strain (assemblage A), using flat-bottom microwell plates in quadruplicate. […] Incubation was carried out for 24 h at 37 °C. EOs and pure compounds were solved in DMSO (Sigma, Madrid, Spain) (<1% final concentration). […] Trophozoites/promastigotes viability was assessed using the modified MTT colorimetric assay, as described previously in the literature, with results further validated by microscopic examination. The plate was analyzed in a spectrophotometer at a wavelength of 570 nm. The percentage of antiparasitic activity was calculated as growth inhibition, using the following formula: % AT = 100 - [(Ap - Ab) ÷ (Ac - Ab)] × 100, where Ap is the absorbance of the tested product, Ab the absorbance of the blank and Ac the absorbance of the control wells (culture without treatment). […] Metronidazole (Acros Organics, Madrid, Spain) served as a reference compound for anti-Giardia activity and Anti-Trichomonas activity and amphotericin B for anti-Leishmania activity. Data was analyzed using STATGRAPHICS Centurion XIX ([…].com) (Statgraphics Technologies, Inc., The Plains, VA, USA). The mammalian cells and trophozoites viability were tested with each compound in a dose-response experiment to calculate their relative potency (CC50 or IC50 value, respectively).

≈ marks a conversion by molar mass, not a printed value.

As usually defined, the IC50 is the concentration at which inhibition is half-maximal. The term CC50 denotes the concentration giving 50% cytotoxicity.

For `CC(C)=C1C/C=C(\C)CC/C=C(\C)CC1=O` [Compound 2, germacrone], the concentration for half-maximal inhibition (IC50) in data set [1] amounted to 37.5 µg/mL (≈ 172 µM); in data set [3], 55.2 µg/mL (≈ 253 µM). In data set [2], this molecule had a cytotoxic concentration (CC50) at 48 h of approximately 100 µg/mL (≈ 458 µM).
